Measurements published in patent US8372967B2, “Compounds and methods for modulating expression of GCCR” (Isis Pharmaceuticals, Inc., priority 2006, dated 2013).
Strand notation (5' to 3'): a small letter for the sugar, then the base; units joined by * are phosphorothioate-linked, units joined directly phosphodiester-linked; [ ] holds rarer units or linkages, { } end groups; capitals alone tell only the bases. e = 2'-O-(2-methoxyethyl) (MOE); [5mC] = 5-methylcytosine; d = 2'-deoxy (DNA)

What was measured:
PTP1B mRNA = assay: Dose response for human PTP1B in HuVEC cells, PPS 198 and PPS 3000 (Tables 86, 87); assay type: cell-based
Protocol: Human vascular endothelial (HuVEC) cells were plated at a density of 5000 cells per well and treated as described herein with nM concentrations of short antisense compound as indicated in Table 86. After the treatment period, RNA was isolated from the cells and PTP1B mRNA levels were measured by quantitative real-time PCR, as described herein. PTP1B mRNA levels were adjusted according to total RNA content as measured by RIBOGREEN®. Two different human PTP1B primer probe sets were used to measure mRNA levels. Results with Primer Probe Set (PPS) 198 are shown in Table 86, and results with Primer Probe Set (PPS) 3000 are shown in Table 87. Results are presented as percent inhibition of PTP1B mRNA expression relative to untreated control cells.

PCSK9 mRNA = assay type: cell-based, human; details: Hep3B cells, 100 nM, relative to untreated control cells; for % Inhib: 0 = no reduction observed
Protocol: When cells reached appropriate confluency, they were treated with oligonucleotide using LIPOFECTIN® as described. […] Cells were treated and data were obtained in duplicate or triplicate. […] Cells were harvested 16-24 hours after oligonucleotide treatment.
Prior to quantitative PCR analysis, primer-probe sets specific to the target gene being measured were evaluated for their ability to be “multiplexed” with a GAPDH amplification reaction. After isolation the RNA is subjected to sequential reverse transcriptase (RT) reaction and real-time PCR, both of which are performed in the same well. RT and PCR reagents were obtained from Invitrogen Life Technologies (Carlsbad, Calif.). […] The RT reaction was carried out by incubation for 30 minutes at 48° C. Following a 10 minute incubation at 95° C. to activate the PLATIN 9M® Taq, 40 cycles of a two-step PCR protocol were carried out: 95° C. for 15 seconds (denaturation) followed by 60° C. for 1.5 minutes (annealing/extension).
170 μL of RiboGreen® working reagent (RiboGreen® reagent diluted 1:350 in 10 mM Tris-HCl, 1 mM EDTA, pH 7.5) was pipetted into a 96-well plate containing 30 μL purified cellular RNA. The plate was read in a CytoFluor® 4000 (PE Applied Biosystems) with excitation at 485 nm and emission at 530 nm.
Short antisense compounds targeted to a PCSK9 nucleic acid were tested for their effects on PCSK9 mRNA in vitro. The Isis No, gapmer motif and SEQ ID NO of each short antisense compound are shown again in Table 75. Cultured Hep3B cells were treated with 100 nM of short antisense compound. 5-10-5 MOE gapmers targeted to a PCSK9 nucleic acid were used as positive controls. After the treatment period, RNA was isolated from the cells and PCSK9 mRNA levels were measured by quantitative real-time PCR, as described herein. PCSK9 mRNA levels were adjusted according to total RNA content as measured by RIBOGREEN®. Results are presented in Table 75 as percent inhibition of PCSK9 (% Inhib), relative to untreated control cells.

## 399208 (eA*eG*d[5mC]*dT*d[5mC]*dG*d[5mC]*dT*dA*d[5mC]*d[5mC]*dT*e[5mC]*eT; antisense) [compound 399208]
PTP1B mRNA; PPS 198, 1.11 nM
  % Inhibition: 0%
PTP1B mRNA; PPS 198, 3.33 nM
  % Inhibition: 37%
PTP1B mRNA; PPS 198, 10.0 nM
  % Inhibition: 86%
PTP1B mRNA; PPS 198, 30.0 nM
  % Inhibition: 93%
PTP1B mRNA; PPS 3000, 1.11 nM
  % Inhibition: 0%
PTP1B mRNA; PPS 3000, 3.33 nM
  % Inhibition: 47%
PTP1B mRNA; PPS 3000, 10.0 nM
  % Inhibition: 85%
PTP1B mRNA; PPS 3000, 30.0 nM
  % Inhibition: 96%

## 399315 (antisense eG*eG*d[5mC]*dA*dA*d[5mC]*dT*dT*d[5mC]*dA*dA*d[5mC]*e[5mC]*eT) [compound 399315]
PTP1B mRNA; PPS 198, 1.11 nM
  % Inhibition: 0%
PTP1B mRNA; PPS 198, 3.33 nM
  % Inhibition: 20%
PTP1B mRNA; PPS 198, 10.0 nM
  % Inhibition: 68%
PTP1B mRNA; PPS 198, 30.0 nM
  % Inhibition: 88%
PTP1B mRNA; PPS 3000, 1.11 nM
  % Inhibition: 0%
PTP1B mRNA; PPS 3000, 3.33 nM
  % Inhibition: 25%
PTP1B mRNA; PPS 3000, 10.0 nM
  % Inhibition: 71%
PTP1B mRNA; PPS 3000, 30.0 nM
  % Inhibition: 93%

## 399173 (eA*eT*dG*d[5mC]*dT*dA*dG*dT*dG*d[5mC]*dA*d[5mC]*eT*eA; antisense) [compound 399173]
PTP1B mRNA; PPS 198, 1.11 nM
  % Inhibition: 0%
PTP1B mRNA; PPS 198, 3.33 nM
  % Inhibition: 24%
PTP1B mRNA; PPS 198, 10.0 nM
  % Inhibition: 63%
PTP1B mRNA; PPS 198, 30.0 nM
  % Inhibition: 89%
PTP1B mRNA; PPS 3000, 1.11 nM
  % Inhibition: 0%
PTP1B mRNA; PPS 3000, 3.33 nM
  % Inhibition: 11%
PTP1B mRNA; PPS 3000, 10.0 nM
  % Inhibition: 59%
PTP1B mRNA; PPS 3000, 30.0 nM
  % Inhibition: 92%

## 399113 (eG*eT*dT*dA*dG*dG*d[5mC]*dA*dA*dA*dG*dG*eG*e[5mC]; antisense) [compound 399113]
PTP1B mRNA; PPS 198, 1.11 nM
  % Inhibition: 0%
PTP1B mRNA; PPS 198, 3.33 nM
  % Inhibition: 31%
PTP1B mRNA; PPS 198, 10.0 nM
  % Inhibition: 72%
PTP1B mRNA; PPS 198, 30.0 nM
  % Inhibition: 90%
PTP1B mRNA; PPS 3000, 1.11 nM
  % Inhibition: 0%
PTP1B mRNA; PPS 3000, 3.33 nM
  % Inhibition: 9%
PTP1B mRNA; PPS 3000, 10.0 nM
  % Inhibition: 65%
PTP1B mRNA; PPS 3000, 30.0 nM
  % Inhibition: 90%

## 399132 (eG*eG*dG*d[5mC]*dT*dG*dA*dG*dT*dG*dA*d[5mC]*e[5mC]*e[5mC]; antisense) [compound 399132]
PTP1B mRNA; PPS 198, 1.11 nM
  % Inhibition: 0%
PTP1B mRNA; PPS 198, 3.33 nM
  % Inhibition: 32%
PTP1B mRNA; PPS 198, 10.0 nM
  % Inhibition: 75%
PTP1B mRNA; PPS 198, 30.0 nM
  % Inhibition: 95%
PTP1B mRNA; PPS 3000, 1.11 nM
  % Inhibition: 0%
PTP1B mRNA; PPS 3000, 3.33 nM
  % Inhibition: 26%
PTP1B mRNA; PPS 3000, 10.0 nM
  % Inhibition: 76%
PTP1B mRNA; PPS 3000, 30.0 nM
  % Inhibition: 91%

## 399102 (eG*eA*dA*dG*dT*d[5mC]*dA*d[5mC]*dT*dG*dG*d[5mC]*eT*eT; antisense) [compound 399102]
PTP1B mRNA; PPS 198, 1.11 nM
  % Inhibition: 0%
PTP1B mRNA; PPS 198, 3.33 nM
  % Inhibition: 15%
PTP1B mRNA; PPS 198, 10.0 nM
  % Inhibition: 62%
PTP1B mRNA; PPS 198, 30.0 nM
  % Inhibition: 88%
PTP1B mRNA; PPS 3000, 1.11 nM
  % Inhibition: 0%
PTP1B mRNA; PPS 3000, 3.33 nM
  % Inhibition: 9%
PTP1B mRNA; PPS 3000, 10.0 nM
  % Inhibition: 60%
PTP1B mRNA; PPS 3000, 30.0 nM
  % Inhibition: 87%

## 400366 (antisense eG*e[5mC]*dT*d[5mC]*d[5mC]*dG*dG*d[5mC]*dA*dG*d[5mC]*dA*eG*eA) [compound 400366]
PCSK9 mRNA
  % Inhibition Range: 10-20%
  % Inhib: 15%

## 400319 (antisense e[5mC]*eG*dA*dA*dT*dA*dA*dA*d[5mC]*dT*d[5mC]*d[5mC]*eA*eG) [compound 400319]
PCSK9 mRNA
  % Inhib: 0%

## 400370 (antisense eG*e[5mC]*d[5mC]*dG*dG*d[5mC]*dT*d[5mC]*d[5mC]*dG*dG*d[5mC]*eA*eG) [compound 400370]
PCSK9 mRNA
  % Inhibition Range: 10-20%
  % Inhib: 13%

## 400341 (antisense eG*e[5mC]*dT*dG*dG*dT*d[5mC]*d[5mC]*dT*d[5mC]*dA*dG*eG*eG) [compound 400341]
PCSK9 mRNA
  % Inhib: 0%

## 400350 (antisense e[5mC]*e[5mC]*d[5mC]*dT*d[5mC]*dA*d[5mC]*d[5mC]*d[5mC]*d[5mC]*d[5mC]*dA*eA*eA) [compound 400350]
PCSK9 mRNA
  % Inhibition Range: 10-20%
  % Inhib: 15%

## 400355 (antisense eA*eG*dA*d[5mC]*dA*d[5mC]*d[5mC]*d[5mC]*dT*d[5mC]*dA*d[5mC]*e[5mC]*e[5mC]) [compound 400355]
PCSK9 mRNA
  % Inhib: 0%

## 400301 (antisense e[5mC]*eG*d[5mC]*dT*d[5mC]*d[5mC]*dA*dG*dG*dT*dT*d[5mC]*e[5mC]*eA) [compound 400301]
PCSK9 mRNA
  % Inhibition Range: 20-30%
  % Inhib: 27%

## 400360 (antisense eG*e[5mC]*dA*dT*dG*dG*d[5mC]*dA*dG*d[5mC]*dA*dG*eG*eA) [compound 400360]
PCSK9 mRNA
  % Inhibition Range: 30-40%
  % Inhib: 38%

## 400367 (antisense eG*eG*d[5mC]*dT*d[5mC]*d[5mC]*dG*dG*d[5mC]*dA*dG*d[5mC]*eA*eG) [compound 400367]
PCSK9 mRNA
  % Inhibition Range: 10-20%
  % Inhib: 12%

## 400335 (antisense e[5mC]*e[5mC]*dT*d[5mC]*dA*dG*dG*dG*dA*dA*d[5mC]*d[5mC]*eA*eG) [compound 400335]
PCSK9 mRNA
  % Inhib: 0%

## 400328 (antisense eA*e[5mC]*dG*dT*dG*dG*dG*d[5mC]*dA*dG*d[5mC]*dA*eG*e[5mC]) [compound 400328]
PCSK9 mRNA
  % Inhibition Range: 10-20%
  % Inhib: 13%

## 400336 (antisense eT*e[5mC]*d[5mC]*dT*d[5mC]*dA*dG*dG*dG*dA*dA*d[5mC]*e[5mC]*eA) [compound 400336]
PCSK9 mRNA
  % Inhib: 4%
